Consider five molecules from patent publication US12582667B2, “Compositions and methods to treat metastatic gastrointestinal cancer” (The Rockefeller University, priority 2019, dated 2026).

Molecules are shown by their SMILES.

Data set [1] has as its system LS174T cells. The data set can be described thus: 3-Mercaptopicolinic acid in vitro growth assay. The class given is cell-based, human. The following applies: 24-hour exposure to 1 mM 3 MPA in media, terminated on day 5. How it is done: 3-Mercaptopicolinic Acid In Vitro Growth Assay
LS174T cells were seeded in 6-well plates. On day 1, the media was replaced with either control media or media supplemented with 1 mM 3 MPA. On day 2, all the media was replaced with control media. The experiment was terminated on day 5.
2×10^4 LS174T cells were seeded in triplicate. On day 1, the media was replaced with either control media or media supplemented with 1 mM 3 MPA. On day 2, all the media was replaced with control media. The experiment was terminated on day 5.

The test system of data set [2] is CRC cells. The data set can be described thus: Liver colonization after portal circulation injection of 3-MPA pre-treated CRC cells. It counts as in vivo, mouse. The following applies: cells pre-treated in vitro for 24 hours, then portal circulation injection; p=0.01. As to the method:
(§1) All animal work was conducted in accordance with a protocol approved by the Institutional Animal Care and Use Committee (IACUC) at The Rockefeller University and Memorial Sloan Kettering Cancer Center. […] For functional studies of PCK1, colorectal cancer cells (SW480 or LS174T) that had been stably transduced with a luciferase reporter (Ponomarev et al., 2004) were subjected to portal circulation injection in NSG mice; after two minutes, a splenectomy was performed. For functional and pharmacology studies of DHODH, colorectal cancer cells (Lvm3b) that had been stably transduced with a luciferase reporter were subjected to portal circulation injection in athymic nude mice; after two minutes, a splenectomy was performed. Mice were imaged weekly; experiments were terminated when the luciferase signal had saturated or the mice were too ill, whichever occurred first.
Due to the strong reduction in mCRC liver colonization observed upon PCK1 depletion, it was hypothesized that PCK1 inhibition may represent a potential therapeutic strategy for impairing CRC metastatic progression. In vivo proof-of-principle experiments were performed in two independent CRC cell lines with a PCK1-inhibitor, 3-mercaptopicolinic acid (3-MPA) (N. W. DiTullio, et al. Biochem J 138, 387-394 (1974)). […]

The subject of data set [3] is LS174T cells. The data set can be described thus: Subcutaneous tumor growth of 3-MPA pre-treated LS174T cells. The class given is in vivo, mouse. The following applies: pre-treatment of LS174T cells with 3-MPA.
Data set [4] concerns LS174T cells. Nature of the data set: Oral gavage of 3-MPA, LS174T liver colonization model. It counts as in vivo, mouse. The following applies: oral gavage 200 mg/kg prior to cell injection and on day one. As to the method:
as §1
Chow was removed from cages four hours prior to injection of LS174T cells. Gavage with either 3-MPA (200 mg/kg in aqueous solution) or placebo was performed one hour prior to the injection of LS174T cells. 1×10^6 LS174T cells were injected into the portal systemic circulation as described in the Animals section above. Chow was returned to cages after injection. On day 1, chow was removed from cages; 3-MPA or placebo was administered via gavage four hours post-chow removal. […]

Data set [5] concerns Lvm3b cells. The following applies: K. Bracht, et al. Br J Cancer 103, 340-346 (2010); cited from earlier work.
Data set [6] relates to CRC cells. The data set can be described thus: In vitro hypoxia cell growth assay with leflunomide. The class given is cell-based, human. The following applies: for impairment of proliferation, hypoxia versus normoxia: hypoxia compared with normoxia. How it is done: In Vitro Hypoxia Cell Growth Assays
Lvm3b cells or LS174T cells were grown under normoxia for 24 hours followed by incubation for 5 days under 0.5% oxygen and then counted using the Sceptor 2.0 automated Cell Counter (Millipore).
Dihydroorotate Dehydrogenase (DHODH) is a key enzyme in the metabolic pathway that […] dihydroorotate to orotate, which is ultimately converted to the pyrimidine nucleotides UTP and CTP. To further confirm that pyrimidine biosynthesis promotes CRC hypoxic growth, CRC growth upon DHODH inhibition was assessed.

The subject of data set [7] is Lvm3b cells. The data set can be described thus: Lvm3b liver metastatic colonization in athymic nude mice. It counts as in vivo, mouse. How it is done: FIGS. 3A and 3B are a set of diagrams showing the effects of the DHODH inhibitor in inhibiting liver metastatic colonization. […] The mice were imaged every week. Firefly luciferase bioluminescent images are shown (p<0.0001, Student's t-test).
as §1
Chow was removed from cages four hours prior to injection of LS174T cells. Gavage with either 3-MPA (200 mg/kg in aqueous solution) or placebo was performed one hour prior to the injection of LS174T cells. 1×10^6 LS174T cells were injected into the portal systemic circulation as described in the Animals section above. Chow was returned to cages after injection. On day 1, chow was removed from cages; 3-MPA or placebo was administered via gavage four hours post-chow removal. Chow was returned to cages four hours after drug administration. Mice were imaged bi-weekly. […] An equivalent volume of DMSO was intraperitoneally injected every day to the control cohort.
To directly test this, highly metastatic LVM3b CRC cells of DHODH were depleted.

For data set [8], the system named is two distinct CRC populations. The data set can be described thus: Primary tumor growth of CRC populations under leflunomide. It counts as in vivo. The conditions noted are these: leflunomide treatment.
The subject of data set [9] is HS746T cells. The data set can be described thus: HS746T subcutaneous tumor growth in NSG mice. The class given is in vivo, mouse. The conditions noted are these: uridine administration, HS746T tumor (FIG. 4C). How it is done:
MPK: mg/kg body weight of mouse. Tumor size was measured by a digital caliper, and tumor volume was calculated as volume=[…].
Cg-Prkdc^scid Il2rg^tm1Wjl/SzJ (Nod-Scid-Gamma; NSG) mice (n=4 per each cohort).

Data set [10] has as its system GAS HI tumor. Nature of the data set: GAS HI patient-derived tumor growth in athymic nude mice. The class given is in vivo, mouse. The conditions noted are these: uridine administration, patient-derived tumor (FIG. 5B; text says FIGS. 5A and 5B).
Data set [11] concerns CRC cells. The data set can be described thus: Uridine rescue of hypoxic growth of PCK1 depleted CRC cells. It counts as cell-based, human. The conditions noted are these: uridine supplementation, hypoxia. How it is done: In Vitro Hypoxia Cell Growth Assays Lvm3b cells or LS174T cells were grown under normoxia for 24 hours followed by incubation for 5 days under 0.5% oxygen and then counted using the Sceptor 2.0 automated Cell Counter (Millipore). The above findings reveal that liver metastatic CRC cells enhance pyrimidine levels and that PCK1 drives pyrimidine nucleotide levels under hypoxia. […] To directly test this, whether the growth defect of PCK1 depletion upon hypoxia could be rescued by the pyrimidine nucleoside uridine was determined. […] The results reveal PCK1 induction to be a mechanism employed by CRC cells to enhance pyrimidine nucleotide levels under hypoxia to promote growth.

A short description of data set [12]: Solubility of β-GPA. It counts as physicochemical.

Consider `O=C(O)c1ncccc1S` [3-MPA, 3-mercaptopicolinic acid], for which the results for the “cell growth in vitro” value in data set [1] and in [1] (listed as 3 MPA) were “did not alter cell proliferation in vitro” and “does not alter”, respectively. In data set [2], the “mCRC liver colonization in vivo” value is “significantly reduced”. Also, the subcutaneous tumor growth entry in [3] is “did not, however, alter subcutaneous tumor growth”. Besides, the “colorectal cancer liver colonization” value in [4] is listed as “decreased colorectal cancer liver colonization”.
Regarding `O=c1[nH]cc(F)c(=O)[nH]1` [5-FU, 5-fluorouracil], the “resistance of cells to the drug” value in data set [5] is “highly resistant”.
For `Cc1oncc1C(=O)Nc1ccc(C(F)(F)F)cc1` [leflunomide], in [6] (hypoxia (0.5% oxygen)), the “CRC growth in the context of hypoxia” value is on record as “significantly impaired”. Moreover, the “impairment of proliferation, hypoxia versus normoxia” value is on record as “impaired proliferation significantly more in the context of hypoxia than under normoxia” in data set [6] and “more significant under hypoxia than normoxia” in [6] (listed as Leflunomide). The “reduction in CRC liver metastatic colonization” value in data set [7] (7.5 mg/kg body weight intraperitoneally every day, athymic nude mice, versus DMSO) is given as around 90 fold. For the same molecule, in data set [7] (7.5 mg/kg from day 1, n=4, p<0.0001, Student's t-test), the “liver metastatic colonization of Lvm3b cells (luciferase bioluminescence)” value is “inhibited liver metastatic colonization”. Also, the “survival (Kaplan-Meier)” value in [7] (7.5 mg/kg, versus control mice, p=0.006) is listed as “significantly longer survival”. The primary tumor growth result in data set [8] was “only modestly impacted”.
`O=c1ccn([C@@H]2O[C@H](CO)[C@@H](O)[C@H]2O)c(=O)[nH]1` [uridine]: the “rescue of leflunomide-impaired growth upon hypoxia” value in data set [6] (uridine supplementation, hypoxia, leflunomide treatment) is “rescued”. Moreover, the “rescue of leflunomide-induced tumor growth reduction” value in data set [9] is listed as “rescued”. The “rescue of leflunomide induced tumor growth suppression” value in data set [10] is listed as “rescued”. The “rescue of hypoxic growth defect upon PCK1 depletion” value in [11] is on record as “rescued the hypoxic growth defect”.
As to `N=C(N)NCCC(=O)O` [β-GPA, beta-guanidinopropionic acid], in data set [12] (organic solvents), the “solubility in organic solvents” value is “low solubility”. The same molecule displayed a solubility in data set [12] (water) above 50 mg/mL.
